Data taken from US9023986B2, “Glucose-dependent insulinotropic peptide analogs” (Hoffmann-La Roche Inc., priority 2010, dated 2015).

Biological target: T1, human GIPR (Homo sapiens, UniProt P48546)
T1 construct: host or cells: CHO-K1
T1 sequence (P48546 22-466): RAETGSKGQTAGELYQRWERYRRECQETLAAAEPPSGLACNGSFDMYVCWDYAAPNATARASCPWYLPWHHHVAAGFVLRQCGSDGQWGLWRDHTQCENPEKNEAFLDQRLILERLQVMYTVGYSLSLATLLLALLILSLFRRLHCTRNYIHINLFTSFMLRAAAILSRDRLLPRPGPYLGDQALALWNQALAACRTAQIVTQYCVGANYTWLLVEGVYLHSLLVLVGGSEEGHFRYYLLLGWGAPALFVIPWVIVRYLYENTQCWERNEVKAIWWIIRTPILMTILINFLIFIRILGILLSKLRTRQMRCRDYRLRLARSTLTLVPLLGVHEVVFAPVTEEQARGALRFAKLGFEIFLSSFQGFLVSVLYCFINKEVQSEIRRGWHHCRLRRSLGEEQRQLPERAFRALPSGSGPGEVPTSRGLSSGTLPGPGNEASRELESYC
Experiment: cAMP production in CHO-K1 cells expressing human GIPR (LANCE cAMP assay)
Assay type: cell-based
Conditions: for Emax: CHO-K1, read-out: % activation of cAMP (maximal stimulation)
Protocol: CHO—K1 cells expressing human GIPR were obtained from DiscoverX Corporation (Fremont, Calif.). The cells were cultured in Ham's F-12 nutrient media supplemented with 10% foetal bovine serum, 800 μg/ml geneticin, 300 μg/ml hydromycin, 2 mM L-glutamine, and Penicillin-streptomycin (100 units, 100 μg) at 37° C. in a 5% CO2 incubator. The cells were harvested at 90% confluence.
The cells were suspended in Ham's F-12 nutrient media to a concentration of 200,000 cells/ml. The cells were then plated in a 384 well plate at with […] of the suspension added per well. The cells were incubated overnight at 37° C. in a 5% CO2 incubator.
The activity of the compounds was determined by stimulating the CHO—K1 cells with the test compound, and measuring the levels of cAMP produced. The activity of the compounds was compared to the activity of native GIP, as GIP stimulates cAMP production. 6 μl of the test compound in stimulation buffer (990 ml Hank's Balanced Salt solution (HBSS) (1×) (Invitrogen Corp #14025-092), 10 ml Hepes buffer solution (1 mol·L) (Invitrogen Corp 15630-080), 1 g BSA (final 0.1%), and 1 ml IBMX 250 mM stock prepared fresh in DMSO (Sigma-Aldrich 15879)) were added to cells, followed by 6 μl of Alexa Fluor® 647-anti cAMP antibody (Perkin Elmer) in stimulation buffer. […] The well plate was centrifuged for 3 min at 300 rpm, and incubated at room temperature for 45 minutes. 12 μl of detection mixture (biotin cAMP and EUW8044 labeled streptavidin (Eu-SA) in cAMP Detection Buffer (Perkin Elmer)) was added and incubated for 60 min at room temperature.
The levels of cAMP produced were measured according to the detailed protocol outlined in the Perkin Elmer LANCE cAMP Assay Perkin Elmer Lance cAMP Kit manual. The activity of the compounds was compared to the activity of native GIP.
The plates are read on a TRF detection instrument, EnVision® (Perkin Elmer) (excitation at 340 nm and emission at 665 nm). The values of the cAMP signal are obtained from the standard cAMP curve and used to determine the amount of maximal stimulation, and EC50 for stimulating the cAMP signal.

Compound: CC[C@H](C)[C@H](NC(=O)[C@H](CO)NC(=O)[C@H](Cc1ccc(O)cc1)NC(=O)[C@H](CC(=O)O)NC(=O)[C@H](CO)NC(=O)[C@@H](NC(=O)[C@H](Cc1ccccc1)NC(=O)[C@@H](NC(=O)CNC(=O)[C@H](CCC(=O)O)NC(=O)[C@H](C)NC(=O)[C@@H](Cc1cccc(F)c1)NC(C)=O)[C@@H](C)O)[C@@H](C)CC)C(=O)N[C@@H](C)C(=O)N[C@@H](CCSC)C(=O)N[C@@H](CC(=O)O)C(=O)N[C@@H](CCCCN)C(=O)N[C@H](C(=O)N[C@@H](Cc1c[nH]cn1)C(=O)N[C@@H](CCC(N)=O)C(=O)N[C@@H](CCC(N)=O)C(=O)N[C@@H](CC(=O)O)C(=O)N[C@@H](Cc1ccccc1)C(=O)N[C@H](C(=O)N[C@@H](CC(N)=O)C(=O)N[C@@H](Cc1c[nH]c2ccccc12)C(=O)N[C@@H](CC(C)C)C(=O)N[C@@H](CC(C)C)C(=O)N[C@@H](C)C(=O)N[C@@H](CCC(N)=O)C(=O)N[C@@H](CCCCN)C(N)=O)C(C)C)[C@@H](C)CC [Example 16]
- EC50: 0.058 nM
- Emax: 98%

Compound: CC[C@H](C)[C@H](NC(=O)[C@H](CO)NC(=O)[C@H](Cc1ccc(O)cc1)NC(=O)[C@H](CC(=O)O)NC(=O)[C@H](CO)NC(=O)[C@@H](NC(=O)[C@H](Cc1ccccc1)NC(=O)[C@@H](NC(=O)CNC(=O)[C@H](CCC(=O)O)NC(=O)[C@H](C)NC(=O)[C@@H](Cc1ccccc1F)NC(C)=O)[C@@H](C)O)[C@@H](C)CC)C(=O)N[C@@H](C)C(=O)N[C@@H](CCSC)C(=O)N[C@@H](CC(=O)O)C(=O)N[C@@H](CCCCN)C(=O)N[C@H](C(=O)N[C@@H](Cc1c[nH]cn1)C(=O)N[C@@H](CCC(N)=O)C(=O)N[C@@H](CCC(N)=O)C(=O)N[C@@H](CC(=O)O)C(=O)N[C@@H](Cc1ccccc1)C(=O)N[C@H](C(=O)N[C@@H](CC(N)=O)C(=O)N[C@@H](Cc1c[nH]c2ccccc12)C(=O)N[C@@H](CC(C)C)C(=O)N[C@@H](CC(C)C)C(=O)N[C@@H](C)C(=O)N[C@@H](CCC(N)=O)C(=O)N[C@@H](CCCCN)C(N)=O)C(C)C)[C@@H](C)CC [Example 15]
- EC50: 0.0075 nM
- Emax: 99.8%

Compound: CC[C@H](C)[C@H](NC(=O)[C@H](CO)NC(=O)[C@H](Cc1ccc(O)cc1)NC(=O)[C@H](CC(=O)O)NC(=O)[C@H](CO)NC(=O)[C@@H](NC(=O)[C@H](Cc1ccccc1)NC(=O)[C@@H](NC(=O)CNC(=O)[C@H](CCC(=O)O)NC(=O)[C@H](C)NC(=O)[C@@H](Cc1ccccc1Cl)NC(C)=O)[C@@H](C)O)[C@@H](C)CC)C(=O)N[C@@H](C)C(=O)N[C@@H](CCSC)C(=O)N[C@@H](CC(=O)O)C(=O)N[C@@H](CCCCN)C(=O)N[C@H](C(=O)N[C@@H](Cc1c[nH]cn1)C(=O)N[C@@H](CCC(N)=O)C(=O)N[C@@H](CCC(N)=O)C(=O)N[C@@H](CC(=O)O)C(=O)N[C@@H](Cc1ccccc1)C(=O)N[C@H](C(=O)N[C@@H](CC(N)=O)C(=O)N[C@@H](Cc1c[nH]c2ccccc12)C(=O)N[C@@H](CC(C)C)C(=O)N[C@@H](CC(C)C)C(=O)N[C@@H](C)C(=O)N[C@@H](CCC(N)=O)C(=O)N[C@@H](CCCCN)C(N)=O)C(C)C)[C@@H](C)CC [Example 12]
- EC50: 0.121 nM
- Emax: 104%

Compound: Ac-(D)Tyr-Ala-Glu-Gly-Thr-Phe-Ile-Ser-Asp-Tyr-Ser-Ile-Ala-Met-Asp-Lys-Ile-His-Gln-Gln-Asp-Phe-Val-Asn-Trp-Leu-Leu-Ala-Gln-Lys-NH2 [Example 6]
- % activation of cAMP (maximal stimulation) (CHO-K1 cells expressing human GIPR, compared to native GIP): 102%

Compound: CC[C@H](C)[C@H](NC(=O)[C@H](CO)NC(=O)[C@H](Cc1ccc(O)cc1)NC(=O)[C@H](CC(=O)O)NC(=O)[C@H](CO)NC(=O)[C@@H](NC(=O)[C@H](Cc1ccccc1)NC(=O)[C@@H](NC(=O)CNC(=O)[C@H](CCC(=O)O)NC(=O)[C@H](C)NC(=O)[C@@H](Cc1cccc(Cl)c1)NC(C)=O)[C@@H](C)O)[C@@H](C)CC)C(=O)N[C@@H](C)C(=O)N[C@@H](CCSC)C(=O)N[C@@H](CC(=O)O)C(=O)N[C@@H](CCCCN)C(=O)N[C@H](C(=O)N[C@@H](Cc1c[nH]cn1)C(=O)N[C@@H](CCC(N)=O)C(=O)N[C@@H](CCC(N)=O)C(=O)N[C@@H](CC(=O)O)C(=O)N[C@@H](Cc1ccccc1)C(=O)N[C@H](C(=O)N[C@@H](CC(N)=O)C(=O)N[C@@H](Cc1c[nH]c2ccccc12)C(=O)N[C@@H](CC(C)C)C(=O)N[C@@H](CC(C)C)C(=O)N[C@@H](C)C(=O)N[C@@H](CCC(N)=O)C(=O)N[C@@H](CCCCN)C(N)=O)C(C)C)[C@@H](C)CC [Example 13]
- EC50: 0.072 nM
- Emax: 106%

Compound: CC[C@H](C)[C@H](NC(=O)[C@H](CO)NC(=O)[C@H](Cc1ccc(O)cc1)NC(=O)[C@H](CC(=O)O)NC(=O)[C@H](CO)NC(=O)[C@@H](NC(=O)[C@H](Cc1ccccc1)NC(=O)[C@@H](NC(=O)CNC(=O)[C@H](CCC(=O)O)NC(=O)[C@H](C)NC(=O)[C@@H](Cc1ccccc1)NC(C)=O)[C@@H](C)O)[C@@H](C)CC)C(=O)N[C@@H](C)C(=O)N[C@@H](CCSC)C(=O)N[C@@H](CC(=O)O)C(=O)N[C@@H](CCCCN)C(=O)N[C@H](C(=O)N[C@@H](Cc1c[nH]cn1)C(=O)N[C@@H](CCC(N)=O)C(=O)N[C@@H](CCC(N)=O)C(=O)N[C@@H](CC(=O)O)C(=O)N[C@@H](Cc1ccccc1)C(=O)N[C@H](C(=O)N[C@@H](CC(N)=O)C(=O)N[C@@H](Cc1c[nH]c2ccccc12)C(=O)N[C@@H](CC(C)C)C(=O)N[C@@H](CC(C)C)C(=O)N[C@@H](C)C(=O)N[C@@H](CCC(N)=O)C(=O)N[C@@H](CCCCN)C(N)=O)C(C)C)[C@@H](C)CC [Example 8]
- EC50: 0.685 nM
- Emax: 102%

Compound: CC[C@H](C)[C@H](NC(=O)[C@H](CO)NC(=O)[C@H](Cc1ccc(O)cc1)NC(=O)[C@H](CC(=O)O)NC(=O)[C@H](CO)NC(=O)[C@@H](NC(=O)[C@H](Cc1ccccc1)NC(=O)[C@@H](NC(=O)CNC(=O)[C@H](CCC(=O)O)NC(=O)[C@H](C)NC(=O)[C@@H](Cc1ccc(Cl)cc1)NC(C)=O)[C@@H](C)O)[C@@H](C)CC)C(=O)N[C@@H](C)C(=O)N[C@@H](CCSC)C(=O)N[C@@H](CC(=O)O)C(=O)N[C@@H](CCCCN)C(=O)N[C@H](C(=O)N[C@@H](Cc1c[nH]cn1)C(=O)N[C@@H](CCC(N)=O)C(=O)N[C@@H](CCC(N)=O)C(=O)N[C@@H](CC(=O)O)C(=O)N[C@@H](Cc1ccccc1)C(=O)N[C@H](C(=O)N[C@@H](CC(N)=O)C(=O)N[C@@H](Cc1c[nH]c2ccccc12)C(=O)N[C@@H](CC(C)C)C(=O)N[C@@H](CC(C)C)C(=O)N[C@@H](C)C(=O)N[C@@H](CCC(N)=O)C(=O)N[C@@H](CCCCN)C(N)=O)C(C)C)[C@@H](C)CC [Example 14]
- EC50: 0.025 nM
- Emax: 106%

Compound: CC[C@H](C)[C@H](NC(=O)[C@H](CO)NC(=O)[C@H](Cc1ccc(O)cc1)NC(=O)[C@H](CC(=O)O)NC(=O)[C@H](CO)NC(=O)[C@@H](NC(=O)[C@H](Cc1ccccc1)NC(=O)[C@@H](NC(=O)CNC(=O)[C@H](CCC(=O)O)NC(=O)[C@H](C)NC(=O)CCc1ccc(O)cc1)[C@@H](C)O)[C@@H](C)CC)C(=O)N[C@@H](C)C(=O)N[C@@H](CCSC)C(=O)N[C@@H](CC(=O)O)C(=O)N[C@@H](CCCCN)C(=O)N[C@H](C(=O)N[C@@H](Cc1c[nH]cn1)C(=O)N[C@@H](CCC(N)=O)C(=O)N[C@@H](CCC(N)=O)C(=O)N[C@@H](CC(=O)O)C(=O)N[C@@H](Cc1ccccc1)C(=O)N[C@H](C(=O)N[C@@H](CC(N)=O)C(=O)N[C@@H](Cc1c[nH]c2ccccc12)C(=O)N[C@@H](CC(C)C)C(=O)N[C@@H](CC(C)C)C(=O)N[C@@H](C)C(=O)N[C@@H](CCC(N)=O)C(=O)N[C@@H](CCCCN)C(N)=O)C(C)C)[C@@H](C)CC [Example 7]
- EC50: 0.095 nM
- Emax: 103%
